Data published in article PMC12089509, “NorA Efflux Pump Inhibitors: Expanding SAR Knowledge of Pyrazolo[4,3‐c][1,2]benzothiazine 5,5‐Dioxide Derivatives” (Archiv Der Pharmazie, 2025).
Converted amounts (≈) assume the structure as drawn.

Assays:
[1] = target: T1, S. aureus NorA efflux pump (SA-1199B strain, overexpresses the norA gene) (Staphylococcus aureus, UniProt P0A0J7); experiment: EtBr efflux inhibition assay; assay type: cell-based; conditions: for inhibition at 50 µM: read-out: EtBr efflux inhibition (%), compound at 50 µM, SA-1199B
T1 construct: endogenous in cells; host or cells: S. aureus SA-1199B (overexpresses norA; isogenic parent SA-1199)
Summary of the method: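 The SA-1199B strain (norA-overexpressing, GrlA A116E) was preloaded with EtBr using 25 μM EtBr and 100 μM CCCP for 20 min at room temperature, then resuspended in CAMHB with or without 50 or 10 μM compound. Fluorescence (ex 485/em 645 nm) was followed for 5 min, and percent efflux inhibition was calculated relative to untreated cells.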

[2] = test system: S. aureus SA-K1902 (norA-); experiment: Checkerboard assay EPI/CPX against SA-K1902; assay type: cell-based, Staphylococcus aureus
Description: Checkerboard assays were carried out using SA‐K1902 and SA‐K2378 strains according to standard procedures.

[3] = MTT cytotoxicity assay on A549; assay type: cell-based; conditions: human, A549 cells; for viability at 72 h, 12.5 µg/mL: A549, 12.5 μg/mL; for viability at 72 h, 12.5 µg/mL / viability at 72 h, 25 µg/mL / viability at 72 h, 50 µg/mL / viability at 72 h, 100 µg/mL: read-out: Cytotoxicity (% cell viability); for viability at 72 h, 25 µg/mL: A549, 25 μg/mL; for viability at 72 h, 50 µg/mL: A549, 50 μg/mL; for viability at 72 h, 100 µg/mL: A549, 100 μg/mL
Description: The MTT assay was performed on two human ATCC cell lines, that is, […] (CCL‐185) and MCF7 (HTB‐22), to test the potential cytotoxic effect of the compounds, after 72 h exposure, as previously described. Each compound was tested at concentrations ranging from 12.5 to 100 μg/mL. Untreated cells were considered as controls. The percentage of viable cells was calculated as follows: % Cell viability = 100 × treated well absorbance/untreated control well absorbance. All assays were performed once in technical quadruplicate.

T1 sequence (P0A0J7 whole entry): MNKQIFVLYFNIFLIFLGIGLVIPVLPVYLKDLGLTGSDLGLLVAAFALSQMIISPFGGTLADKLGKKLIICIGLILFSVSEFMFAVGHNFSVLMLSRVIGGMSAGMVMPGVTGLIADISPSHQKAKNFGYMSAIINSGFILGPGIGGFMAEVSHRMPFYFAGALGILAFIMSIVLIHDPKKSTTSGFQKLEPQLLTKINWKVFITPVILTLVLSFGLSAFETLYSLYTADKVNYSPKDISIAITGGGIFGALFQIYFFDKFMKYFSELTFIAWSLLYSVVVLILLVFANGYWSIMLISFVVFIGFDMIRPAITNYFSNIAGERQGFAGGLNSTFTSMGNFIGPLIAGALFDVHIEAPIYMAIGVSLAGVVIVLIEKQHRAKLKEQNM

SMILES | inhibition at 50 µM [1] | CPX MIC ([2]; EPI at 0.2 µg/mL) | N° CPX MIC reduction ([2]; EPI at 0.2 µg/mL) | CPX MIC ([2]; EPI at 0.4 µg/mL) | N° CPX MIC reduction ([2]; EPI at 0.4 µg/mL) | CPX MIC ([2]; EPI at 0.8 µg/mL) | N° CPX MIC reduction ([2]; EPI at 0.8 µg/mL) | CPX MIC ([2]; EPI at 1.6 µg/mL) | N° CPX MIC reduction ([2]; EPI at 1.6 µg/mL) | CPX MIC ([2]; EPI at 3.13 µg/mL) | N° CPX MIC reduction ([2]; EPI at 3.13 µg/mL) | viability at 72 h, 12.5 µg/mL [3] | viability at 72 h, 25 µg/mL [3] | viability at 72 h, 50 µg/mL [3] | viability at 72 h, 100 µg/mL [3] | further results
O=S1(=O)Nc2c(-c3ccc(Cl)cc3)nn(-c3ccccc3)c2-c2ccccc21 [Compound 3] | 7% | 0.08 µg/mL | 2 | 0.08 µg/mL | 2 | 0.08 µg/mL | 2 | 0.08 µg/mL | 2 | 0.08 µg/mL | 2 | 94 ± 24% | 99 ± 20% | 101 ± 24% | 34 ± 10% | CPX MIC ([2]; EPI at 6.25 µg/mL): 0.08 µg/mL; N° CPX MIC reduction ([2]; EPI at 6.25 µg/mL): 2; CPX MIC ([2]; EPI at 12.5 µg/mL): 0.08 µg/mL; N° CPX MIC reduction ([2]; EPI at 12.5 µg/mL): 2
CN1c2c(-c3ccc(Cl)cc3)n[nH]c2-c2ccccc2S1(=O)=O [Compound 10, 3‐(4‐Chlorophenyl)‐4‐methyl‐1,4‐dihydropyrazolo[4,3‐c][1,2]benzothiazine 5,5‐dioxide] | 100% | 0.08 µg/mL | 2 | 0.08 µg/mL | 2 | 0.08 µg/mL | 2 | 0.08 µg/mL | 2 | 0.08 µg/mL | 2 | 97 ± 2% | 45 ± 3% | 7% | 7 ± 2% | inhibition at 10 µM ([1]; read-out: EtBr efflux inhibition (%), compound at 10 µM, SA-1199B): 95%; CC50 at 72 h ([3]; A549, MTT): ~25 µg/mL (≈ 72.3 µM)
